# Test results reported in ChEMBL document CHEMBL1201862, “PubChem BioAssay data set” (2004).
#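 Where inhibition never reached the appropriate level, the endpoint shown equals the highest concentration tested. Otherwise, values were interpolated linearly from a five-concentration, 48-hour dose response in 96-well plates. Abbreviation: GI50, concentration required for 50% inhibition of growth.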 Calls of active or inactive are those of the source. Rule as the data show it: active = GI50 up to about 1.1 µM and inactive = higher.
# Experiments:
# Assay in all cases: NCI tumour cell line growth inhibition, 48 h
# SK-MEL-5 = test system: SK-MEL-5
# SK-OV-3 = test system: SK-OV-3
# LOX IMVI = test system: LOX IMVI
# COLO 205 = test system: COLO 205
# SN12C = test system: SN12C
# CAKI-1 = test system: CAKI-1
# NCI-H226 = test system: NCI-H226
# A498 = test system: A498
# UO-31 = test system: UO-31
# MDA-MB-435 = test system: MDA-MB-435
# Malme-3M = test system: Malme-3M
# HOP-92 = test system: HOP-92
# OVCAR-5 = test system: OVCAR-5
# K562 = test system: K562
# M14 = test system: M14
# MOLT-4 = test system: MOLT-4
# HCT-116 = test system: HCT-116
# RXF 393 = test system: RXF 393
# HOP-62 = test system: HOP-62
# HCC 2998 = test system: HCC 2998
Structure (SMILES),GI50 (SK-MEL-5),GI50 (SK-OV-3),GI50 (LOX IMVI),GI50 (COLO 205),GI50 (SN12C),GI50 (CAKI-1),GI50 (NCI-H226),GI50 (A498),GI50 (UO-31),GI50 (MDA-MB-435),GI50 (Malme-3M),GI50 (HOP-92),GI50 (OVCAR-5),GI50 (K562),GI50 (M14),GI50 (MOLT-4),GI50 (HCT-116),GI50 (RXF 393),GI50 (HOP-62),GI50 (HCC 2998)
COC1=CC(=O)c2c(c(COC(C)=O)cn2C)C1=O,0.118 µM (active),0.119 µM (active),0.0887 µM (active),0.0282 µM (active),0.0622 µM (active),0.0405 µM (active),0.137 µM (active),0.244 µM (active),0.159 µM (active),0.13 µM (active),0.0343 µM (active),0.291 µM (active),0.0223 µM (active),0.15 µM (active),0.0632 µM (active),0.305 µM (active),0.0347 µM (active),0.0809 µM (active),–,–
COc1cc(S(=O)(=O)Nc2ccc(-c3csc(N4C(=O)C(Cl)C4c4ccccc4)n3)cc2)ccc1Cl (centres undefined),25.2 µM (inactive),> 100 µM (inactive),2.14 µM (inactive),37.9 µM (inactive),24.9 µM (inactive),> 100 µM (inactive),–,25.9 µM (inactive),25 µM (inactive),38.5 µM (inactive),22.3 µM (inactive),18.2 µM (inactive),47.4 µM (inactive),32.2 µM (inactive),24 µM (inactive),27 µM (inactive),59.6 µM (inactive),10.7 µM (inactive),69.2 µM (inactive),–
CCOc1ccccc1/C=C(/C#N)C(N)=O,78.3 µM (inactive),> 100 µM (inactive),> 100 µM (inactive),> 100 µM (inactive),> 100 µM (inactive),> 100 µM (inactive),> 100 µM (inactive),> 100 µM (inactive),85.3 µM (inactive),18.2 µM (inactive),> 100 µM (inactive),> 100 µM (inactive),> 100 µM (inactive),36.2 µM (inactive),> 100 µM (inactive),83.9 µM (inactive),78.3 µM (inactive),> 100 µM (inactive),> 100 µM (inactive),–
COc1cc(CN(C)N2C(=O)c3cccc4cc([N+](=O)[O-])cc(c34)C2=O)cc(OC)c1OC,> 100 µM (inactive),44.1 µM (inactive),–,> 100 µM (inactive),> 100 µM (inactive),> 100 µM (inactive),58.1 µM (inactive),> 100 µM (inactive),> 100 µM (inactive),> 100 µM (inactive),> 100 µM (inactive),> 100 µM (inactive),> 100 µM (inactive),> 100 µM (inactive),> 100 µM (inactive),27.6 µM (inactive),–,14.1 µM (inactive),16.7 µM (inactive),–
COc1cc(O)c2c(O)c3c(c4c2c1[C@]1(C4)C(C)=CCCC1(C)C)[C@H](O)[C@@]1(O)CC(O)=C(C(N)=O)C(=O)[C@@]1(O)C3=O,0.175 µM (active),0.348 µM (active),0.305 µM (active),0.108 µM (active),0.0531 µM (active),0.294 µM (active),0.239 µM (active),0.163 µM (active),0.34 µM (active),0.0667 µM (active),0.158 µM (active),0.362 µM (active),0.324 µM (active),0.123 µM (active),0.126 µM (active),0.333 µM (active),0.209 µM (active),0.459 µM (active),0.16 µM (active),–
C=CCOC(=O)Cn1cc(C)c(=O)[nH]c1=O,> 100 µM (inactive),> 100 µM (inactive),> 100 µM (inactive),> 100 µM (inactive),> 100 µM (inactive),> 100 µM (inactive),> 100 µM (inactive),> 100 µM (inactive),> 100 µM (inactive),> 100 µM (inactive),> 100 µM (inactive),–,–,> 100 µM (inactive),> 100 µM (inactive),> 100 µM (inactive),> 100 µM (inactive),–,> 100 µM (inactive),> 100 µM (inactive)
O=S(=O)(CC(O)C(Cl)(Cl)Cl)NNc1ccccc1 (centres undefined),74.1 µM (inactive),> 100 µM (inactive),> 100 µM (inactive),75 µM (inactive),> 100 µM (inactive),> 100 µM (inactive),> 100 µM (inactive),> 100 µM (inactive),–,> 100 µM (inactive),> 100 µM (inactive),> 100 µM (inactive),> 100 µM (inactive),23 µM (inactive),81.7 µM (inactive),> 100 µM (inactive),> 100 µM (inactive),> 100 µM (inactive),> 100 µM (inactive),–
CCCCC1(O)CC2CC1C(C)C2(C)C (centres undefined),> 100 µM (inactive),> 100 µM (inactive),> 100 µM (inactive),> 100 µM (inactive),> 100 µM (inactive),> 100 µM (inactive),> 100 µM (inactive),–,> 100 µM (inactive),> 100 µM (inactive),> 100 µM (inactive),–,> 100 µM (inactive),> 100 µM (inactive),> 100 µM (inactive),93.3 µM (inactive),> 100 µM (inactive),> 100 µM (inactive),> 100 µM (inactive),> 100 µM (inactive)
CCOC(=O)c1nc2ccc(C(F)(F)F)cc2nc1Oc1cc(OC)c(OC)c(OC)c1,23.1 µM (inactive),> 100 µM (inactive),> 100 µM (inactive),17.7 µM (inactive),> 100 µM (inactive),–,27.2 µM (inactive),> 100 µM (inactive),> 100 µM (inactive),> 100 µM (inactive),35.3 µM (inactive),14.5 µM (inactive),97.9 µM (inactive),36.7 µM (inactive),> 100 µM (inactive),> 100 µM (inactive),50.9 µM (inactive),28.7 µM (inactive),25.6 µM (inactive),–
C[C@]12CC[C@H](O)CC1=CC[C@@H]1[C@@H]2CC[C@]2(C)C(=N/N)/C(=N\O)C[C@@H]12,> 100 µM (inactive),76 µM (inactive),57 µM (inactive),40 µM (inactive),> 100 µM (inactive),> 100 µM (inactive),74.3 µM (inactive),16.7 µM (inactive),> 100 µM (inactive),2.12 µM (inactive),27.1 µM (inactive),2.42 µM (inactive),> 100 µM (inactive),14.5 µM (inactive),> 100 µM (inactive),16.4 µM (inactive),43.4 µM (inactive),> 100 µM (inactive),45.9 µM (inactive),–
c1ccc([P+](c2ccccc2)(c2ccccc2)c2ccc([P+](c3ccccc3)(c3ccccc3)c3ccccc3)cc2)cc1,41 µM (inactive),> 100 µM (inactive),34.3 µM (inactive),20.1 µM (inactive),35.7 µM (inactive),> 100 µM (inactive),65.5 µM (inactive),> 100 µM (inactive),> 100 µM (inactive),49.5 µM (inactive),> 100 µM (inactive),–,88.5 µM (inactive),28.4 µM (inactive),82 µM (inactive),24.7 µM (inactive),32 µM (inactive),34.8 µM (inactive),> 100 µM (inactive),–
